Reference: patent publication US20230009626A1 (ICHNOS SCIENCES S.A., priority 2018, published 2023)
pIC50: −log10 of the molar value.

Molecular target: HPK1 (MAP4K1) (Homo sapiens, UniProt Q92918)
Assay: FRET Assay for HPK1 (MAP4K1): one step binding assay, displacement of labeled tracer
Details: for inhibition at 1 µM: 1 μM compound; for inhibition at 1 µM / inhibition at 10 µM: FRET ratio 665/620, percent of control; for inhibition at 10 µM: 10 μM compound; for pIC50: dose response curve, nonlinear regression
Text: FRET Assay for HPK1 (MAP4K1):
This is a one step binding assay based on the binding and displacement of the labeled tracer, where compound addition is followed by addition of the anti-GST tagged europium (Eu) as the donor and Alexa Fluor-labeled tracer as the acceptor. Simultaneous binding of both the tracer and GST-antibody to the kinase domain of HPK1 results in a high degree of FRET (fluorescence resonance energy transfer) from the anti-GST tagged europium (Eu) fluorophore to the Alexa Fluor® 647 fluorophore on the kinase tracer and this signal is reduced in presence of the inhibitor that can be measured.
Test compounds or reference compounds such as Sunitinib (Sigma) were dissolved in dimethylsulfoxide (DMSO) to prepare 10.0 mM stock solutions and diluted to the desired concentration. The final concentration of DMSO in the reaction was 3% (v/v). The assay mixture was prepared by mixing 4 nM of the Eu-Anti-GST Antibody and 10 nM MAP4K-1 enzyme in the Kinase buffer containing 50mM HEPES (pH 7.5), 10 mM MgCl2, 1 mM EGTA, 0.01% Brij-35 with or without the desired concentration of the compound. The reaction was incubated on ice for 15 mins. The pre-incubation step was followed by addition of the 20 nM Kinase Tracer 222 into the reaction mixture. After shaking for 5 min the reaction was further incubated for 1 hour at room temperature and this was kept at 4° C. and read on ARTEMIS reader as per the kit instructions (Thermo). […] The activity was calculated as percent of control reaction. IC50 values were calculated from dose response curve by nonlinear regression analysis using GraphPad Prism software.
Percentage inhibition at concentrations of 1.0 μM and 10.0 μM are given in the table along with IC50 (nM) details for selected examples.

Chain of HPK1 (MAP4K1) (Q92918 whole entry): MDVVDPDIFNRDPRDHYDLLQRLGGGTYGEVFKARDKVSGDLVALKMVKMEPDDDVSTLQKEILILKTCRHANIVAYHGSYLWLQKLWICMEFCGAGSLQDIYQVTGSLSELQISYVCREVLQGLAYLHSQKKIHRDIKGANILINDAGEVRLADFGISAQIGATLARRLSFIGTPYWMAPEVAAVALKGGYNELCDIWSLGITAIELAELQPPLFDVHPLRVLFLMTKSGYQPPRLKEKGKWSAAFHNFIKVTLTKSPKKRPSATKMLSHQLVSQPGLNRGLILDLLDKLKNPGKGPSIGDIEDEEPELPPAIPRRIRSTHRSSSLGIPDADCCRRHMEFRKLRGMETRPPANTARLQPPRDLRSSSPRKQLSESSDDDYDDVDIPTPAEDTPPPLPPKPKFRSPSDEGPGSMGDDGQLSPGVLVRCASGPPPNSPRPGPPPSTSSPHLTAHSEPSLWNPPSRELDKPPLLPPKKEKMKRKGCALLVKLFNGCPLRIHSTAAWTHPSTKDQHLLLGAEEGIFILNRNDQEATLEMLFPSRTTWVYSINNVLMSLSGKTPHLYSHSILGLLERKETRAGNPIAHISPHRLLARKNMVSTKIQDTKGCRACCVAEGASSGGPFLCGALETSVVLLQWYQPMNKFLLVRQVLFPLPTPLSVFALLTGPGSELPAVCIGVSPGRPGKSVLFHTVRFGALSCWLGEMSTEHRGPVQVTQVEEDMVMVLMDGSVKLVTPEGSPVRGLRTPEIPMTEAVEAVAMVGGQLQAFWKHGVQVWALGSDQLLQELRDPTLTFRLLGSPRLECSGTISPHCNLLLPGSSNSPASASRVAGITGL

inhibition at 1 µM [%] | inhibition at 10 µM [%] | pIC50 | Compound
81.7 | 80 | > 7.30 | CCOc1cccc(F)c1-c1cc2c(cn1)NC(=O)/C2=C(/C)Nc1ccc(N2CCNCC2)cc1 [Example 34, (Z)-5-(2-Ethoxy-6-fluorophenyl)-3-(1-((4-(piperazin-1-yl)phenyl)amino)ethylidene)-1H-pyrrolo[2,3-c]pyridin-2(3H)-one]
88 | 100 | > 7.30 | C/C(Nc1cnn(C)c1)=C1/C(=O)Nc2cnc(-c3c(F)cccc3OC(F)F)cc21 [Example 35, (Z)-5-(2-(Difluoromethoxy)-6-fluorophenyl)-3-(1-((1-methyl-1H-pyrazol-4-yl)amino)ethylidene)-1H-pyrrolo[2,3-c]pyridin-2(3H)-one]
87.8 | 85.1 | > 7.30 | CCOc1cccc(F)c1-c1cc2c(cn1)NC(=O)/C2=C(/C)Nc1ccc(N2CCNCC2)nc1 [Example 36, (Z)-5-(2-Ethoxy-6-fluorophenyl)-3-(1-((6-(piperazin-1-yl)pyridin-3-yl)amino)ethylidene)-1H-pyrrolo[2,3-c]pyridin-2(3H)-one]
84.4 | 91.2 | 7.00 to 7.30 | CCOc1cccc(F)c1-c1cc2c(cn1)NC(=O)/C2=C(/C)Nc1ccc(N2CCOCC2)nc1 [Example 37, (Z)-5-(2-Ethoxy-6-fluorophenyl)-3-(1-((6-morpholinopyridin-3-yl)amino)ethylidene)-1H-pyrrolo[2,3-c]pyridin-2(3H)-one]
93.5 |  | > 7.30 | C/C(Nc1ccc(N2CCOCC2)nc1)=C1/C(=O)Nc2cnc(-c3cnccc3C)cc21 [Example 38, (Z)-5-(4-Methylpyridin-3-yl)-3-(1-((6-morpholinopyridin-3-yl)amino)ethylidene)-1H-pyrrolo[2,3-c]pyridin-2(3H)-one]
72.2 | 86.6 | > 7.30 | COCCn1cc(N/C(C)=C2\C(=O)Nc3cnc(-c4c(F)cccc4OC)cc32)cn1 [Example 39, (Z)-5-(2-Fluoro-6-methoxyphenyl)-3-(1-((1-(2-methoxyethyl)-1H-pyrazol-4-yl)amino)ethylidene)-1H-pyrrolo[2,3-c]pyridin-2(3H)-one]
81.3 | 92 | 6.30 to 7.00 | COc1cccc(F)c1-c1cc2c(cn1)NC(=O)/C2=C(\Nc1cnn(C)c1)C(C)C [Example 40, (Z)-5-(2-Fluoro-6-methoxyphenyl)-3-(2-methyl-1-((1-methyl-1H-pyrazol-4-yl)amino)propylidene)-1H-pyrrolo[2,3-c]pyridin-2(3H)-one]
69.9 | 77 | 7.00 to 7.30 | C/C(Nc1cnn(C)c1)=C1/C(=O)Nc2cnc(-c3cnn(C)c3C)cc21 [Example 41, (Z)-5-(1,5-Dimethyl-1H-pyrazol-4-yl)-3-(1-((1-methyl-1H-pyrazol-4-yl)amino)ethylidene)-1H-pyrrolo[2,3-c]pyridin-2(3H)-one]
86.2 | 89.2 | > 7.30 | COc1cccc(F)c1-c1ccc2c(n1)/C(=C(\C)Nc1cnn(C)c1)C(=O)N2 [Example 43, (Z)-5-(2-Fluoro-6-methoxyphenyl)-3-(1-((1-methyl-1H-pyrazol-4-yl)amino)ethylidene)-1H-pyrrolo[3,2-b]pyridin-2(3H)-one]
91.4 | 93.1 | > 7.30 | COc1cccc(F)c1-c1cc2c(cn1)NC(=O)/C2=C(/C)Nc1cnn(C2CCOCC2)c1 [Example 44, (Z)-5-(2-Fluoro-6-methoxyphenyl)-3-(1-((1-(tetrahydro-2H-pyran-4-yl)-1H-pyrazol-4-yl)amino)ethylidene)-1H-pyrrolo[2,3-c]pyridin-2(3H)-one]
72.4 | 86 | 6.30 to 7.00 | C/C(Nc1cnn(C)c1)=C1/C(=O)Nc2cnc(-c3cnc4c(c3C)NCCO4)cc21 [Example 45, (Z)-3-(1-((1-Methyl-1H-pyrazol-4-yl)amino)ethylidene)-5-(8-methyl-2,3-dihydro-1H-pyrido[2,3-b][1,4]oxazin-7-yl)-1H-pyrrolo[2,3-c]pyridin-2(3H)-one]
85.3 | 87.3 | > 7.30 | C/C(Nc1ccc(N2CCNCC2)nc1)=C1/C(=O)Nc2cnc(-c3cnccc3C)cc21 [Example 46, (Z)-5-(4-Methylpyridin-3-yl)-3-(1-((6-(piperazin-1-yl)pyridin-3-yl)amino)ethylidene)-1H-pyrrolo[2,3-c]pyridin-2(3H)-one]
83.5 | 82.5 | > 7.30 | CC/C(Nc1cnn(C)c1)=C1/C(=O)Nc2cnc(-c3cnccc3C)cc21 [Example 47, (Z)-3-(1-((1-Methyl-1H-pyrazol-4-yl)amino)propylidene)-5-(4-methylpyridin-3-yl)-1H-pyrrolo[2,3-c]pyridin-2(3H)-one]
77.2 | 84.8 | 7.00 to 7.30 | Cc1ccncc1-c1cc2c(cn1)NC(=O)/C2=C(\Nc1cnn(C)c1)C(C)C [Example 48, (Z)-3-(2-Methyl-1-((1-methyl-1H-pyrazol-4-yl)amino)propylidene)-5-(4-methylpyridin-3-yl)-1H-pyrrolo[2,3-c]pyridin-2(3H)-one]
64.3 | 74.2 | > 7.30 | C/C(Nc1cnn(C2CC2)c1)=C1/C(=O)Nc2cnc(-c3cnccc3C)cc21 [Example 49, (Z)-3-(1-((1-Cyclopropyl-1H-pyrazol-4-yl)amino)ethylidene)-5-(4-methylpyridin-3-yl)-1H-pyrrolo[2,3-c]pyridin-2(3H)-one]
82.8 | 87.9 | > 7.30 | CCn1cc(N/C(C)=C2\C(=O)Nc3cnc(-c4cnccc4C)cc32)cn1 [Example 50, (Z)-3-(1-((1-Ethyl-1H-pyrazol-4-yl)amino)ethylidene)-5-(4-methylpyridin-3-yl)-1H-pyrrolo[2,3-c]pyridin-2(3H)-one]
81.2 | 84.2 | > 7.30 | C/C(Nc1cnn(C)c1)=C1/C(=O)Nc2cnc(-c3cncc(N)c3C)cc21 [Example 51, (Z)-5-(5-Amino-4-methylpyridin-3-yl)-3-(1-((1-methyl-1H-pyrazol-4-yl)amino)ethylidene)-1H-pyrrolo[2,3-c]pyridin-2(3H)-one]
86.1 | 84.9 | > 7.30 | C/C(Nc1cnn(C2COC2)c1)=C1/C(=O)Nc2cnc(-c3cnccc3C)cc21 [Example 52, (Z)-5-(4-Methylpyridin-3-yl)-3-(1-((1-(oxetan-3-yl)-1H-pyrazol-4-yl)amino)ethylidene)-1H-pyrrolo[2,3-c]pyridin-2(3H)-one]
87.1 | 85.4 | > 7.30 | C/C(Nc1cnn(C(C)(C)C#N)c1)=C1/C(=O)Nc2cnc(-c3cnccc3C)cc21 [Example 53, (Z)-2-Methyl-2-(4-((1-(5-(4-methylpyridin-3-yl)-2-oxo-1H-pyrrolo[2,3-c]pyridin-3(2H)-ylidene)ethyl)amino)-1H-pyrazol-1-yl)propanenitrile]
88.5 | 86.1 | > 7.30 | C/C(Nc1ccn(C)n1)=C1/C(=O)Nc2cnc(-c3cnccc3C)cc21 [Example 54, (Z)-3-(1-((1-methyl-1H-pyrazol-3-yl)amino)ethylidene)-5-(4-methylpyridin-3-yl)-1H-pyrrolo[2,3-c]pyridin-2(3H)-one]
78 | 90 | 7.00 to 7.30 | C/C(Nc1cnn(C)c1)=C1/C(=O)Nc2cnc(-c3c(C)noc3C)cc21 [Example 55, (Z)-5-(3,5dimethylisoxazol-4-yl)-3-(1-((1-methyl-1H-pyrazol-4-yl)amino)ethylidene)-1H-pyrrolo[2,3-c]pyridin-2(3H)-one]
66.8 | 75.2 | 6.30 to 7.00 | COc1cccc(F)c1-c1cnc2c(c1)/C(=C(\C)Nc1cnn(C)c1)C(=O)N2 [Example 56, (Z)-5-(2-Fluoro-6-methoxyphenyl)-3-(1-((1-methyl-1H-pyrazol-4-yl)amino)ethylidene)-1H-pyrrolo[2,3-b]pyridin-2(3H)-one]
80.9 | 94.1 | > 7.30 | C/C(Nc1cnn(C2CCOCC2)c1)=C1/C(=O)Nc2cnc(-c3cnccc3C)cc21 [Example 57, (Z)-5-(4-Methylpyridin-3-yl)-3-(1-((1-(tetrahydro-2H-pyran-4-yl)-1H-pyrazol-4-yl)amino)ethylidene)-1H-pyrrolo[2,3-c]pyridin-2(3H)-one]
71 | 72.7 | > 7.30 | C/C(Nc1ccc(N2CCNCC2)cc1)=C1/C(=O)Nc2cnc(-c3cnccc3C)cc21 [Example 58, (Z)-5-(4-Methylpyridin-3-yl)-3-(1-((4-(piperazin-1-yl)phenyl)amino)ethylidene)-1H-pyrrolo[2,3-c]pyridin-2(3H)-one]
